Test results published in paper PMC9738632 (Molecules, 2022).
Where two headings read alike, the source gives them in different places.

Columns and labels:
DENV-4: SLMC318 = test: Plaque reduction neutralization test (PRNT), DENV-4; assay type: cell-based, Dengue virus; settings: DENV-4, BHK-21 cells; for IC50: Dengue virus, DENV4, read-out: PRNT50 DENV-4 (concentration that reduces plaque number by 50%)
Text: (§1) The dengue viruses used in this study were DENV-1:VN/2017/D7709, DENV-2: 00St22A, DENV-3: SMLC50, DENV-4: SLMC318. The virus strains were supplied by the Vietnam National Institute of Hygiene and Epidemiology. The four above serotypes of the Dengue virus were propagated in BHK-21 cell lines (provided by Nagasaki University, Japan) in Eagle’s Minimum Essential Medium (EMEM; Gibco Thermo Fischer Scientific, Waltham, MA, USA) with 2% Fetal Bovine Serum (FBS; Sigma Aldrich, St. Louis, MO, USA) at 37 °C under 5% CO2 atmosphere for 5–7 days. The BHK-21 cells were cultured using 10% FBS EMEM medium.
(§2) EMEM (1 mL) containing FBS (2%) was added into each of 24-well plates (with a concentration of […] –1.0 × 10^4 cells/well). The well plates were shaken to induce the formation of identical cell layers. Afterwards, the wells were incubated at 37 °C under 5% CO2 atmosphere overnight until the cell concentration reached at 70–90%. In case this concentration was not yet reached, the incubation was allowed to continue for a further 1 to 2 days.
(§3) The compounds 4–8 and 23 were totally dissolved in EMEM with a concentration of 500 μg/mL, which was serially diluted with step 2 with EMEM containing 2% FBS; the solutions of compounds were kept at 2–8 °C. The viruses were used at the dose of 2.5 × 10^3 PFU/mL in EMEM containing 2% FBS. The virus (100 μL) was added to all the diluted samples. The virus-compounds mixtures were incubated at 37 °C under 5% CO2 atmosphere for 60 min; afterwards, the medium in all wells of the plates was removed. The virus-compounds mixture (50 μL) was added into the wells, according to the designed experimental test concentration/dilution.
(§4) The viral medium was used as the negative control. EMEM (2 mL) containing methyl cellulose (1%) was added and re-incubated at 37 °C under 5% CO2 atmosphere for 4–6 days. The typical DENV-1 and DENV-4-induced CPE appeared after 4 days of incubation, while the durations for DENV-2 and DENV-3 were 5 and 6 days, respectively. These times of incubation allowed the formation of the plaques to be visually observable and countable. The plaques can be observed under a microscope or by eyes. The cells were fixed with formalin (3.7%) for 1 h at room temperature, washed with water, and stained with crystal violet (0.25%) for 1 h at room temperature. Finally, the plaques were counted.

DENV-2: 00St22A = test: Plaque reduction neutralization test (PRNT), DENV-2; assay type: cell-based, Dengue virus; settings: DENV-2, BHK-21 cells; for IC50: Dengue virus, DENV2, read-out: PRNT50 DENV-2 (concentration that reduces plaque number by 50%)
Text: as §1, §2, §3, §4

DENV-3: SMLC50 = test: Plaque reduction neutralization test (PRNT), DENV-3; assay type: cell-based, Dengue virus; settings: DENV-3, BHK-21 cells; for IC50: Dengue virus, DENV3, read-out: PRNT50 DENV-3 (concentration that reduces plaque number by 50%)
Text: as §1, §2, §3, §4

[1] = Cytotoxic assay (MTT) against BHK-21 cells; assay type: cell-based; settings: hamster, read-out: CC50 (50% cytotoxic concentration)
Procedure: The cytotoxic evaluation of the extracts was carried out against the BHK-21 cells. Under cultural conditions of EMEM with FBS (10%), the assaying cells were grown in 96-well bottom-transparent plates at a density of 6 × 10^4 cells/mL per well. The compounds that had been dissolved in dimethyl sulfoxide (DMSO) with six different concentrations (500, 250, 125, 62.5, 31.25, 15.625 μg/mL) were added into each well; each concentration was used in triplicate. After incubation at 37 °C under 5% CO2 atmosphere for 48 h, MTT (0.5 mg/mL) was added into each well; afterwards, 4 h incubation was carried out. The liquid in the wells was removed, and DMSO ([…]) was added to each well. The optical absorbance was recorded on a microplate reader at λ = 570 nm (Genious Tecan, Grödig, […]). The optical density in the wells was plotted against the logarithm of compound concentration, and 50% cytotoxic concentration (CC50), the compound concentration decreasing the optical density twice comparing to control wells, was calculated using the appropriate software (Table Curve 2Dv4.USA).

DENV-1:VN/2017/D7709 = test: Plaque reduction neutralization test (PRNT), DENV-1; assay type: cell-based, Dengue virus; settings: DENV-1, BHK-21 cells; for IC50: Dengue virus, DENV1, read-out: PRNT50 DENV-1 (concentration that reduces plaque number by 50%)
Text: as §1, §2, §3, §4

[2] = Cytotoxicity assay (MTT) in MDCK cells; assay type: cell-based, Canine; settings: dog, read-out: CC50 (50% cytotoxic concentration)
Procedure: Initially, maximum non-toxic concentrations were determined for compounds 1–22 to exclude their non-specific antiviral activity. The in vitro cytotoxicity of the tested compounds (CC50) was studied in the normal Madin-Darby Canine Kidney cell line (MDCK) by the MTT ((3-(4,5-dimethylthiazol-2-yl)-2,5-diphenyltetrazolium bromide) test. The highest concentration tested was […]. The cytotoxicity of oseltamivir carboxylate and rimantadine was also evaluated as these have been used as reference drugs in antiviral tests. Compounds at concentration that kills no more than 50% of cells (CC50) were used for further investigation of antiviral activity.
The MDCK cells were seeded onto 96-well culture plates (10^4 cells per well) and incubated at 36 °C in 5% CO2 until continuous monolayer formation. To assess the toxicity of the compounds, a series of their 3-fold dilutions, at concentrations of 300 to 3.7 μg/mL in Eagle’s Minimal Essential Medium (MEM), were prepared. The dilutions were added to the wells of the plates. The cells were incubated for 72 h at 36 °C in a CO2 incubator under 5% CO2. Further, a microtetrazolium (MTT) assay was performed on the 96-well plates. The cells were washed 2 times with saline (0.9% NaCl), and 100 μL/well of MTT solution [3-(4,5-dimethylthiazol-2-yl)-2,5-diphenyltetrazolium bromide] at a concentration of […] in MEM was added. The plates were incubated for 1 h at 36 °C, the liquid was removed, and dimethylsulfoxide (DMSO) (0.1 mL per well) was added. The optical density (OD) of the cells was measured on a Thermo Multiskan FC spectrophotometer (Thermo Fisher Scientific, Waltham, MA, USA) at a wavelength of 540 nm. Based on the obtained data, the CC50, the concentration of the compound that destroys 50% of the cells in the culture, was calculated for each specimen.

[3] = system: influenza virus A/Puerto Rico/8/34 (H1N1); test: organism not typed; assay type: cell-based; settings: for IC50: read-out: IC50 (50% inhibitory concentration)
Flu A H1N1 strain = system: Flu A H1N1 strain; parameters: method as in doi:10.1177/1934578X1801301008; settings: read-out: IC50 against Flu A H1N1 strain; cited from earlier work
MDCK cells = system: MDCK cells; parameters: method as in earlier work; settings: ref 40 (table), read-out: CC50 (50% cytotoxic concentration); cited from earlier work
[4] = system: influenza virus A/Puerto Rico/8/34 (H1N1); parameters: method as in earlier work; settings: ref 40 (table), read-out: IC50 (50% inhibitory concentration); cited from earlier work
influenza virus A H7N1 = settings: cited from earlier work

| Compound | melting point [°C] | CC50 at 72 h [2] [µM] | SI (selectivity index, CC50/IC50) [3] | IC50 ([3]; MDCK, 72 h) [µM] | also measured |
| --- | --- | --- | --- | --- | --- |
| CC1(C)CC[C@]2(C(=O)N3CCCNCC3)CC[C@]3(C)C(=CCC4[C@@]5(C)Cc6c([nH]c7ccccc67)C(C)(C)C5CC[C@]43C)C2C1 (stereo partly shown) [Compound 7, N-([3,2b]-Indolo-olean-12(13)-en-28-oyl)-homopiperazine Amide] | > 200 |  |  |  | IC50 (DENV-4: SLMC318): 371 ± 16 µM; IC50 (DENV-2: 00St22A): 105 ± 7 µM; IC50 (DENV-3: SMLC50): > 410 µM; CC50 at 48 h [1]: > 410 µM; IC50 (DENV-1:VN/2017/D7709): 164 ± 11 µM |
| CC1(C)CC[C@]2(C(=O)NCCCNCCCCNCCCN)CC[C@]3(C)C(=CCC4[C@@]5(C)Cc6c([nH]c7ccccc67)C(C)(C)C5CC[C@]43C)C2C1 (stereo partly shown) [Compound 8, N-([3,2b]-Indolo-olean-12(13)-en-28-oyl)-spermine Amide] | 138 | > 140 | >5 | 27 ± 4 | PRNT50 DENV-4 (concentration that reduces plaque number by 50%) (DENV-4: SLMC318): inactive; IC50 (DENV-4: SLMC318): 336 ± 28 µM; PRNT50 DENV-2 (concentration that reduces plaque number by 50%) (DENV-2: 00St22A): inactive; IC50 (DENV-2: 00St22A): 347 ± 21 µM; PRNT50 DENV-3 (concentration that reduces plaque number by 50%) (DENV-3: SMLC50): inactive; IC50 (DENV-3: SMLC50): > 351 µM; CC50 at 48 h [1]: > 351 µM; PRNT50 DENV-1 (concentration that reduces plaque number by 50%) (DENV-1:VN/2017/D7709): inactive; IC50 (DENV-1:VN/2017/D7709): 336 ± 22 µM |
| CCOC(=O)CNC(=O)CN(Cc1ccccc1)C(=O)[C@]12CCC(C)(C)CC1C1=CCC3[C@@]4(C)CCC(=O)C(C)(C)C4CC[C@@]3(C)[C@]1(C)CC2 (stereo partly shown) [Compound 9, Ethyl N-Benzyl-N-3-oxo-olean-12-en-28-glycylglycinate] | 245 to 247 | > 437 | >11 | 41 ± 5 |  |
| CCOC(=O)CNC(=O)CN(Cc1ccccc1)C(=O)[C@]12CCC(C)(C)CC1C1=CCC3[C@@]4(C)Cc5c([nH]c6ccccc56)C(C)(C)C4CC[C@@]3(C)[C@]1(C)CC2 (stereo partly shown) [Compound 10, Ethyl N-Benzyl-N-2,3-indolo-olean-12-en-28-glycylglycinate] | 197 to 199 | 121 ± 9 | 3 | 39 ± 4 |  |
| CC1(C)CC[C@]2(C(=O)N3CCCNCC3)CC[C@]3(C)C(=CCC4[C@@]5(C)CCC(=O)C(C)(C)C5CC[C@]43C)C2C1 (stereo partly shown) [Compound 2, N-(3-Oxo-olean-12(13)-en-28-oyl)-homopiperazine Amide] | 174 | > 560 | >27 | 20 to 21 | IC50 [3]: 21 ± 3 µM |
| Lupane 3,4-seco-3,28-bis-methylpiperazine-amide |  |  |  |  | IC50 (Flu A H1N1 strain): 27 µM |
| CCC(CC)O[C@@H]1C=C(C(=O)O)C[C@H](N)[C@H]1NC(C)=O [Oseltamivir carboxylate, reference compound] |  | > 200 | >667 | 0.3 ± 0.01 |  |
| COC(=O)[C@]12CCC(C)(C)CC1C1=CCC3[C@@]4(C)CC[C@H](N)C(C)(C)C4CC[C@@]3(C)[C@]1(C)CC2 (stereo partly drawn) [Compound 21, Methyl 3β-amino-oleanoate] |  |  |  |  | CC50 (MDCK cells): 18 µM; IC50 [4]: 7.9 µM |
| CC(N)C12CC3CC(CC(C3)C1)C2 (stereo not shown) [Rimantadine, reference compound] |  | 344 ± 19 | 6 |  |  |
| CC1(C)CC[C@]2(C(=O)N3CCCN(CC#N)CC3)CC[C@]3(C)C(=CCC4[C@@]5(C)CCC(=O)C(C)(C)C5CC[C@]43C)C2C1 (stereo partly shown) [Compound 11, N-(3-Oxo-olean-12(13)-en-28-oyl)-4′-cyanomethyl-homopiperazine Amide] | 191 | > 522 | >12 | 45 ± 6 |  |
| CC1(C)CC[C@]2(CO)CC[C@]3(C)C(NCCC4[C@@]5(C)CC[C@H](O)C(C)(C)C5CC[C@]43C)C2C1 (stereo partly shown) [Compound 23, C-azepano-erythrodiol] |  |  |  |  | IC50 (DENV-4: SLMC318): 108 ± 5 µM; IC50 (DENV-2: 00St22A): 68 ± 3 µM; IC50 (DENV-3: SMLC50): 228 ± 16 µM; CC50 at 48 h [1]: > 544 µM; IC50 (DENV-1:VN/2017/D7709): 107 ± 7 µM |
| COC(=O)[C@]12CCC(C)(C)CC1C1=CCC3[C@@]4(C)CC[C@H](NC(=O)c5ccccc5C(=O)O)C(C)(C)C4CC[C@@]3(C)[C@]1(C)CC2 (stereo partly drawn) [Compound 22, Methyl 3β-N-phthalyl-olean-12(13)-en-28-oate] | 240 | > 486 | >42 | 12 ± 2 |  |
| CC1(C)CC[C@]2(C(=O)NCCN3CCNCC3)CC[C@]3(C)C(=CCC4[C@@]5(C)CCC(=O)C(C)(C)C5CC[C@]43C)C2C1 (stereo partly shown) [Compound 6, N-(3-Oxo-olean-12(13)-en-28-oyl)-aminoethylpiperazine Amide] | 175 | 442 ± 31 | 5 | 82 ± 10 | IC50 (DENV-4: SLMC318): 110 ± 8 µM; IC50 (DENV-2: 00St22A): 86 ± 5 µM; IC50 (DENV-3: SMLC50): > 111 µM; CC50 at 48 h [1]: 111 ± 8 µM; IC50 (DENV-1:VN/2017/D7709): 67 ± 4 µM |
| betulonic acid L-leucine-amide |  |  |  |  | suppression of the influenza virus A H7N1 (influenza virus A H7N1): 90%; EC50 (influenza virus A H7N1; influenza virus A H7N1): 2.17 µM |
